Data on eight molecules can be found in ChEMBL document CHEMBL2069296, “A novel series of G-quadruplex ligands with selectivity for HIF-expressing osteosarcoma and renal cancer cell lines” (Bioorg Med Chem Lett, 2012).

In general, IC50 refers to the midpoint of a concentration-inhibition curve. Read a high IC50 as weaker potency.

Activity calls are given as the source filed them. The calls are words filed in the database; no cut-off is given here.

The test system of one assay is HOS. Kind of assay: Antiproliferative activity against human HOS cells after 96 hrs by SRB assay. Type of assay: functional, cell-based.
For the next assay, the system named is MG-63. The assay is described as follows: Antiproliferative activity against human MG63 cells after 96 hrs by SRB assay. Type of assay: functional, cell-based. Conditions: MG-63, 96 h. (In SRB staining, fixed cells bind dye roughly in proportion to their protein.)
The subject of the next assay is HOS-TE85. The assay is described as follows: Antiproliferative activity against human MNNG-HOS cells after 96 hrs by SRB assay. It is filed as functional, cell-based. The note with it: HOS-TE85, 96 h.
The next assay relates to U2OS. Kind of assay: Antiproliferative activity against human U2OS cells after 96 hrs by SRB assay. Type of assay: functional, cell-based.
The next assay relates to SAOS-2. Kind of assay: Antiproliferative activity against human Saos2 cells after 96 hrs by SRB assay. The note with it: SAOS-2, 96 h. It is filed as functional, cell-based.
In another assay the test system is OST. The assay is described as follows: Antiproliferative activity against human OST cells after 96 hrs by SRB assay. It is filed as functional, cell-based.
Assay [1] is described as follows: Antiproliferative activity against human TC71 cells after 96 hrs by SRB assay. Conditions: TC-71, 96 h. It is filed as functional, cell-based.
Assay [2] can be described thus: Antiproliferative activity against human TC32 cells after 96 hrs by SRB assay. It is filed as functional, cell-based. The note with it: TC-32, 96 h.
For another assay, the system named is MCF7. Kind of assay: Antiproliferative activity against human MCF7 cells after 96 hrs by SRB assay. The note with it: MCF7, 96 h. It is filed as functional, cell-based.
A further assay has as its system A549. Kind of assay: Antiproliferative activity against human A549 cells after 96 hrs by SRB assay. Type of assay: functional, cell-based. Conditions: A549, 96 h.
In a further assay the test system is MIA PaCa-2. The assay is described as follows: Antiproliferative activity against human MIAPaCa2 cells after 96 hrs by SRB assay. Type of assay: functional, cell-based. Conditions: MIA PaCa-2, 96 h.
A further assay deals with PANC-1. Kind of assay: Antiproliferative activity against human PANC1 cells after 96 hrs by SRB assay. Type of assay: functional, cell-based. Conditions: PANC-1, 96 h.
For a further assay, the system named is HPAC. Kind of assay: Antiproliferative activity against human HPAC cells after 96 hrs by SRB assay. It is filed as functional, cell-based.
For another assay, the system named is PC-3. The assay is described as follows: Antiproliferative activity against human PC3 cells after 96 hrs by SRB assay. Type of assay: functional, cell-based. Conditions: PC-3, 96 h.
The nature of assay [3]: Antiproliferative activity against human 786-O cells after 96 hrs by SRB assay. The note with it: 786-0, 96 h. It is filed as functional, cell-based.
The test system of the next assay is A498. Kind of assay: Antiproliferative activity against human A498 cells after 96 hrs by SRB assay. Type of assay: functional, cell-based. Conditions: A498, 96 h.
Assay [4] is described as follows: Antiproliferative activity against human RCC4 cells after 96 hrs by SRB assay. Type of assay: functional, cell-based. Conditions: RCC4, 96 h.
Assay [5] is described as follows: Antiproliferative activity against human RCC4/VHL cells after 96 hrs by SRB assay. It is filed as functional, cell-based.
Assay [6] can be described thus: Antiproliferative activity against human TC135 cells after 96 hrs by SRB assay. It is filed as functional, cell-based. Conditions: TC135, 96 h.
A further assay deals with WI-38. Kind of assay: Cytotoxicity against human WI38 after 96 hrs by SRB assay. Conditions: WI-38, 96 h. It is filed as cell-based.
The test system of assay [7] is Nucleic Acid. The assay is described as follows: Binding affinity to HIF1alpha DNA by surface plasmon resonance assay. It is filed as nucleic-acid assay. In general terms: Surface plasmon resonance follows binding to a sensor surface in real time, without labels.
Assay [8] deals with Nucleic Acid. The assay is described as follows: Binding affinity to HIF2alpha DNA by surface plasmon resonance assay. It is filed as nucleic-acid assay.
The subject of assay [9] is Nucleic Acid. Kind of assay: Binding affinity to 5'-GGGGCGGGCACGGGGCGGG-3' DNA by surface plasmon resonance. Type of assay: nucleic-acid assay.

Take `O=C(CN1CCCC1)Nc1cccc(-n2cc(-c3ccc4ccc(-c5cn(-c6cccc(NC(=O)CN7CCCC7)c6)nn5)cc4c3)nn2)c1`: the half-maximal inhibitory concentration (IC50) with HOS amounted to 2 µM; with MG-63, 16 µM; in the assay with HOS-TE85 it was 9 µM; in the assay on U2OS, 22 µM; with SAOS-2 it was 5.8 µM; in the assay on OST it was 7.1 µM. Also, the concentration for half-maximal inhibition (IC50) was 75 µM in [1]; 3 µM in assay [2]; above 100 µM with MCF7; 72 µM with A549; above 100 µM with MIA PaCa-2; 29 µM in the assay with PANC-1. The IC50 in the assay with HPAC worked out at 9 µM; with PC-3, 25 µM; in assay [3], 6.9 µM; in the assay with A498 it was 3.1 µM; in [4], 3.2 µM; in [5], 2.4 µM. Also, the IC50 was 11 µM in assay [6] and 17 µM with WI-38.

Consider `O=C(CN1CCCC1)Nc1ccc(-n2cc(-c3ccc4ccc(-c5cn(-c6ccc(NC(=O)CN7CCCC7)cc6)nn5)cc4c3)nn2)cc1`, for which the K is 1.49 ×10⁷ /M in the assay on Nucleic Acid [7] and 0.97 ×10⁷ /M with Nucleic Acid [8]. In the assay with Nucleic Acid [9], the K result is “inactive”. The IC50 was 2.6 µM in the assay with HOS; above 10 µM in the assay on MG-63; 9.1 µM in the assay with HOS-TE85; 18 µM with U2OS; 9 µM with SAOS-2; 14 µM with OST. The IC50 in [1] was 14 µM; in assay [2] it was 2.5 µM; with MCF7, above 100 µM; in the assay with A549 it was 80.5 µM; in the assay with MIA PaCa-2, 25.5 µM; with PANC-1, 88 µM. Besides, the IC50 in the assay with HPAC came out at 9.5 µM; with PC-3 it was 91 µM; in [3] it was 2.6 µM; in the assay with A498 it was 3.5 µM; in [4] it was 5.1 µM; in assay [5], 6.4 µM. In addition, the IC50 in assay [6] was found to be 3.2 µM; in the assay on WI-38, 26 µM.

For the molecule `CCN(CC)CC(=O)Nc1ccc(-n2cc(-c3ccc4ccc(-c5cn(-c6ccc(NC(=O)CN(CC)CC)cc6)nn5)cc4c3)nn2)cc1`, the K came to 1.25 ×10⁷ /M with Nucleic Acid [7] and 0.15 ×10⁷ /M in the assay with Nucleic Acid [8]. Further, the K entry with Nucleic Acid [9] was “inactive”. For the same molecule, the IC50 in the assay with HOS stood at 75 µM; with MG-63, 81 µM; in the assay with HOS-TE85 it was 25 µM; in the assay on U2OS it was 22 µM; with SAOS-2 it was 95 µM; in the assay with OST, 37 µM. Besides, the IC50 is above 100 µM in [1]; 29 µM in assay [2]; 100 µM with MCF7; above 100 µM with A549; above 100 µM in the assay with MIA PaCa-2; above 100 µM in the assay on PANC-1. The IC50 in the assay with HPAC is 52 µM; in the assay with PC-3 it was above 100 µM; in [3] it was 23 µM; in the assay on A498, 8 µM; in assay [4], 22 µM; in assay [5] it was 26 µM. For the same molecule, the IC50 is 23 µM in [6] and 9 µM with WI-38.

With `CCN(CC)CCC(=O)Nc1cccc(-n2cc(-c3ccc4ccc(-c5cn(-c6cccc(NC(=O)CCN(CC)CC)c6)nn5)cc4c3)nn2)c1`, the IC50 was 3.1 µM in the assay on HOS-TE85; 7.8 µM with U2OS; 2.8 µM in the assay with SAOS-2; 2.1 µM with OST; 28 µM in assay [1]; 2.5 µM in [2]. In addition, the IC50 in the assay with MCF7 was determined as 21 µM; in the assay on A549, 29 µM; in the assay with MIA PaCa-2, 17.5 µM; in the assay on PANC-1, 7.4 µM; in the assay with PC-3, 7.8 µM; in [3], 9.8 µM. The 50% inhibitory concentration (IC50) is 9.9 µM with A498; 1.6 µM in [4]; 2.7 µM in assay [5]; 2.6 µM in assay [6]; 10.6 µM with WI-38.

Take `O=C(CCN1CCCC1)Nc1ccc(-n2cc(-c3ccc4ccc(-c5cn(-c6ccc(NC(=O)CCN7CCCC7)cc6)nn5)cc4c3)nn2)cc1`: the IC50 in the assay on HOS amounted to 0.6 µM; in the assay with MG-63, 2.8 µM; in the assay on HOS-TE85, 2.1 µM; in the assay with U2OS, 2.2 µM; with SAOS-2 it was 1.8 µM; in the assay on OST it was 0.9 µM. Besides, the half-inhibitory concentration (IC50) stood at 16 µM in assay [1]; 0.7 µM in [2]; 8.1 µM in the assay with MCF7; 17 µM with A549; 7.2 µM in the assay on MIA PaCa-2; 7.8 µM in the assay with PANC-1. For the same molecule, the IC50 was determined as 1.9 µM with HPAC; 7.1 µM in the assay on PC-3; 6.5 µM in assay [3]; 1.9 µM in the assay with A498; 2.5 µM in assay [4]; 2.6 µM in [5]. The IC50 in assay [6] was 2.2 µM; in the assay on WI-38, 3.9 µM.

As for `CCN(CC)CCC(=O)Nc1ccc(-n2cc(-c3ccc4ccc(-c5cn(-c6ccc(NC(=O)CCN(CC)CC)cc6)nn5)cc4c3)nn2)cc1`, the IC50 in the assay on HOS was determined as 5.2 µM; with MG-63, 7 µM; in the assay on HOS-TE85, 2.8 µM; with U2OS, 5.1 µM; with SAOS-2, 2.5 µM; in the assay on OST, 1.9 µM. The IC50 in assay [1] came to 7.5 µM; in [2], 2.1 µM; in the assay with MCF7, 9.2 µM; in the assay with A549, 7.6 µM; in the assay on MIA PaCa-2 it was 12.5 µM; with PANC-1, 8 µM. Moreover, the IC50 in the assay with HPAC is 6.9 µM; with PC-3 it was 8.2 µM; in [3] it was 5.6 µM; in the assay on A498 it was 6.9 µM; in assay [4] it was 1.9 µM; in assay [5] it was 2.4 µM. The values for the IC50 (in [6]; in the assay on WI-38) were 2.2 µM and 7.4 µM, respectively.

On to `O=C(CN1CCCCC1)Nc1cccc(-n2cc(-c3ccc4ccc(-c5cn(-c6cccc(NC(=O)CN7CCCCC7)c6)nn5)cc4c3)nn2)c1`, for which the K with Nucleic Acid [7] turned out to be 0.81 ×10⁷ /M; in the assay with Nucleic Acid [8], 0.59 ×10⁷ /M. In addition, in the assay with Nucleic Acid [9], the K result was “inactive”. In addition, the IC50 with HOS was 47 µM; in the assay with MG-63, 90 µM; with HOS-TE85, 23 µM; in the assay on U2OS, 22 µM; in the assay with SAOS-2, 16 µM; in the assay with OST, 37 µM. Further, the IC50 was 81 µM in [1]; 6.6 µM in assay [2]; above 100 µM with MCF7; above 100 µM in the assay with A549; above 100 µM in the assay with MIA PaCa-2; above 100 µM in the assay on PANC-1. The half-inhibitory concentration (IC50) in the assay with HPAC was 96 µM; in the assay on PC-3, above 100 µM; in assay [3], 17.5 µM; with A498, 19 µM; in [4], 2.6 µM; in assay [5], 2.7 µM. Besides, the IC50 in assay [6] is 14 µM; in the assay on WI-38, above 10 µM.

For `O=C(CCN1CCCC1)Nc1cccc(-n2cc(-c3ccc4ccc(-c5cn(-c6cccc(NC(=O)CCN7CCCC7)c6)nn5)cc4c3)nn2)c1`, the half-maximal inhibitory concentration (IC50) with HOS is 7.1 µM; in the assay with MG-63, above 100 µM; in the assay on HOS-TE85, 2.9 µM; in the assay with U2OS, 13 µM; with SAOS-2, 2.7 µM; in the assay on OST, 2.2 µM. The IC50 was 8.9 µM in assay [1]; 1.9 µM in assay [2]; 30 µM in the assay with MCF7; 76 µM in the assay with A549; 11 µM with MIA PaCa-2; 7.1 µM in the assay on PANC-1. The IC50 in the assay on HPAC was 8 µM; with PC-3 it was 9.4 µM; in [3], 5.85 µM; in the assay with A498, 7.5 µM; in assay [4], 4.2 µM; in assay [5], 6.8 µM. Besides, the IC50 was found to be 2.5 µM in assay [6] and 18 µM in the assay on WI-38.
